Measurements taken from US12174198B2, “Methods of characterizing condensate-associated characteristics of compounds and uses thereof” (Dewpoint Therapeutics, Inc., priority 2019, dated 2024).

Legend:
Format in all cases: physicochemical
[1] = molecular target: T1, FUS-SNAP condensates (Homo sapiens, UniProt P35637); assay: Fluorescence imaging of dye partitioning in FUS-SNAP condensates (I-in, I-out)
T1 sequence (P35637 1-526): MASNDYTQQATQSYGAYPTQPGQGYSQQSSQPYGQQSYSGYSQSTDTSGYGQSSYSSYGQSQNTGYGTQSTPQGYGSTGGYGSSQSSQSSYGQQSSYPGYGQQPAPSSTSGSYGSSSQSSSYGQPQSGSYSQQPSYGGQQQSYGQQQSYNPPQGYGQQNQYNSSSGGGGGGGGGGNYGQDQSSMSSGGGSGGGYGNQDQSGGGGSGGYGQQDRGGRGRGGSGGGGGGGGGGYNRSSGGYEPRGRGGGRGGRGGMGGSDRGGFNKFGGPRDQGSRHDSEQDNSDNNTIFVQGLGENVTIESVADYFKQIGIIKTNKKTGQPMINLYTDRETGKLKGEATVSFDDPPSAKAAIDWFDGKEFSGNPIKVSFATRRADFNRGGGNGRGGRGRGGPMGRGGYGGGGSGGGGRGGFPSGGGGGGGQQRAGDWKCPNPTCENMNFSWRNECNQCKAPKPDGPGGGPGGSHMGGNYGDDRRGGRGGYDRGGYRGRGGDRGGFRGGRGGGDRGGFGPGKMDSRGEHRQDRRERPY
Procedure: (§1) All dye-stocks were stored as 1 mM solutions in 100% DMSO. The dyes were dissolved in dilution buffer (DB: 14.7 mM Tris, pH 7.25, 1 mM DTT) to yield 11.765 μM dye in 1.1765 DMSO. 17 μl of dye was distributed in a 384 well non-binding plate (Greiner).
(§2) Either SNAP-tagged FUS protein or tag-free PGL-3 protein was thawed at room temperature for at least 10 min, and the buffer was exchanged to partitioning buffer (PB: 50 mM Tris pH 7.25, 500 mM KCl, 5% Glycerol, and 1 mM DTT). The protein was then diluted to 33.3 μM in PB. 3 μl of protein solution were added to the 384 well plate to initiate phase separation, yielding 20 μl of 5 μM protein and 10 μM dye in 75 mM KCl, 0.75% Glycerol, 20 mM Tris, 1 mM DTT, and 1% DMSO or for no dye control reactions, 20 μl of 5 μM protein in 75 mM KCl, 0.75% Glycerol, 20 mM Tris, 1 mM DTT.
(§3) A spinning disk confocal microscope was used to acquire images of the samples. A 60×oil high-NA objective lens was used to capture the condensate droplets. The laser power was set to 20% and the exposure times were adjusted to the fluorescence emission intensity specific for each dye. Exposure times ranged from 1-1000 ms. Appropriate filter settings were used, matching the excitation and emission spectra of the respective dyes. Three images per well were taken. The background signal of protein droplets in the absence of dye was recorded for all applied imaging conditions.
(§4) Fluorescence intensity was measured inside one exemplary target condensate (Intensity inside, I-in) per image and in a region next to the exemplary target condensate (Intensity outside, I-out) by hand using the image analysis software Fiji. An example depicting the regions measured is shown FIG. 2A. Three I-in and three I-out values were measured in total for each dye in each experiment and were averaged. The measured I-in and I-out values for FUS-SNAP condensates on one day of experiments are shown in Table 2 and Table 3, respectively. The measured I-in and I-out values for PGL-3 condensates on one day of experiments are shown in Table 4 and Table 5, respectively. All values were background corrected, based on the background images (no dye controls) taken with the same microscope conditions.
(§5) The ratios of the average intensity measured in the target condensates and outside of the target condensates were calculated by dividing I-in by I-out, although dividing I-out by I-in could also have been used. The I-in:I-out ratios determined from the two different days of experiments were then averaged. The average I-in:I-out ratios for FUS-SNAP condensates are shown in FIG. 3 and the average I-in:I-out ratios for PGL-3 condensates are shown in FIG. 4. The standard deviation between the two experiments is represented by the error bars in FIG. 3 and FIG. 4.

[2] = molecular target: T2, PGL-3 condensates (Caenorhabditis elegans, UniProt G5EBV6); assay: Fluorescence imaging of dye partitioning in PGL-3 condensates (I-in, I-out)
T2 sequence (G5EBV6 1-693): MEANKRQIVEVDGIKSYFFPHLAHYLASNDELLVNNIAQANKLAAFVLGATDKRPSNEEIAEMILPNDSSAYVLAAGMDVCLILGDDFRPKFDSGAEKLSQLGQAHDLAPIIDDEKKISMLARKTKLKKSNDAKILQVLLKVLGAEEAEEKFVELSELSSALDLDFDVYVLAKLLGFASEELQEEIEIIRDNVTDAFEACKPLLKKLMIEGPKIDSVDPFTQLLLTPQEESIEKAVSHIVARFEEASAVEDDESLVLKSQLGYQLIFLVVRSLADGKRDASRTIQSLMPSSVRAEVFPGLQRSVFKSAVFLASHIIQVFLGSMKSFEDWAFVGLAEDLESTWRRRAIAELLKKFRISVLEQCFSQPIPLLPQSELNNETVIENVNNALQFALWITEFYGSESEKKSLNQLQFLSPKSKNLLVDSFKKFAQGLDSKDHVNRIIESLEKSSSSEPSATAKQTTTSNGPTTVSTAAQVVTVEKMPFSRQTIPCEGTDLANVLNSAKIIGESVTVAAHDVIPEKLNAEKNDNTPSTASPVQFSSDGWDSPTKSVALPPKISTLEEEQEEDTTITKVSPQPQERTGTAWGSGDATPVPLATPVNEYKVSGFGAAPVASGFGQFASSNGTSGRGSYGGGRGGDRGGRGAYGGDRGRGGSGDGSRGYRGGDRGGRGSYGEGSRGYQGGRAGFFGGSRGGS
Procedure: as §1, §2, §3, §4, §5

[3] = tested on: FUS-SNAP condensates versus PGL-3 condensates; assay: Condensate preference: ratio of FUS-SNAP I-in:I-out to PGL-3 I-in:I-out; conditions: average FUS-SNAP I-in:I-out divided by average PGL-3 I-in:I-out
Procedure: as §5

[4] = I-in:I-out, average of two days, 10 μM dye

Intensity Inside with Dye Average ([1]; inside FUS-SNAP condensate, 10 μM dye, 5 μM protein, average of three images, one day of experiments): 5756.6
Intensity Inside with Dye 1 ([1]; inside FUS-SNAP condensate, 10 μM dye, 5 μM protein, image 1, one day of experiments): 6139.7
Intensity Inside with Dye 2 ([1]; inside FUS-SNAP condensate, 10 μM dye, 5 μM protein, image 2, one day of experiments): 6105.5
Intensity Inside with Dye 3 ([1]; inside FUS-SNAP condensate, 10 μM dye, 5 μM protein, image 3, one day of experiments): 5024.6
Intensity Inside Dye-No Dye ([1]; inside FUS-SNAP condensate, background corrected, one day of experiments): 5621.4
Intensity Outside with Dye Average ([1]; outside FUS-SNAP condensate, 10 μM dye, 5 μM protein, average of three images, one day of experiments): 5505.3
Intensity Outside with Dye 1 ([1]; outside FUS-SNAP condensate, 10 μM dye, 5 μM protein, image 1, one day of experiments): 5878.5
Intensity Outside with Dye 2 ([1]; outside FUS-SNAP condensate, 10 μM dye, 5 μM protein, image 2, one day of experiments): 5846.2
Intensity Outside with Dye 3 ([1]; outside FUS-SNAP condensate, 10 μM dye, 5 μM protein, image 3, one day of experiments): 4791.0
Intensity Outside (Dye-No Dye) ([1]; outside FUS-SNAP condensate, background corrected, one day of experiments): 5401.2
Intensity Inside with Dye Average ([2]; inside PGL-3 condensate, 10 μM dye, 5 μM protein, average of three images, one day of experiments): 5674.9
Intensity Inside with Dye 1 ([2]; inside PGL-3 condensate, 10 μM dye, 5 μM protein, image 1, one day of experiments): 5747.5
Intensity Inside with Dye 2 ([2]; inside PGL-3 condensate, 10 μM dye, 5 μM protein, image 2, one day of experiments): 6281.4
Intensity Inside with Dye 3 ([2]; inside PGL-3 condensate, 10 μM dye, 5 μM protein, image 3, one day of experiments): 4996.0
Intensity Inside Dye-No Dye ([2]; inside PGL-3 condensate, background corrected, one day of experiments): 5528.4
Intensity Outside with Dye Average ([2]; outside PGL-3 condensate, 10 μM dye, 5 μM protein, average of three images, one day of experiments): 5893.8
Intensity Outside with Dye 1 ([2]; outside PGL-3 condensate, 10 μM dye, 5 μM protein, image 1, one day of experiments): 5900.4
Intensity Outside with Dye 2 ([2]; outside PGL-3 condensate, 10 μM dye, 5 μM protein, image 2, one day of experiments): 6581.6
Intensity Outside with Dye 3 ([2]; outside PGL-3 condensate, 10 μM dye, 5 μM protein, image 3, one day of experiments): 5199.5
Intensity Outside (Dye-No Dye) ([2]; outside PGL-3 condensate, background corrected, one day of experiments): 5788.5
Substance: Polysucrose 40-fluorescein isothiocyanate conjugate [Dye 10]
Enrichment of dye in the condensate (fluorescent images) ([1]; FIG. 1, exemplary images of Example 2, condensate type not stated): not enriched in the condensate
Ratio of intensity inside:outside FUS-SNAP Condensates Day 1 ([1]; I-in:I-out, Day 1, 10 μM dye): 1.0
Ratio of intensity inside:outside FUS-SNAP Condensates Day 2 ([1]; I-in:I-out, Day 2, 10 μM dye): 1.1
Ratio of intensity inside:outside FUS-SNAP Condensates Average [1, 4]: 1.1
Ratio of intensity inside:outside PGL-3 Condensates Day 1 ([2]; I-in:I-out, Day 1, 10 μM dye): 1.0
Ratio of intensity inside:outside PGL-3 Condensates Day 2 ([2]; I-in:I-out, Day 2, 10 μM dye): 0.9
Ratio of intensity inside:outside PGL-3 Condensates Average [2, 4]: 0.9
Ratio of FUS-SNAP:PGL-3 [3]: 1.1
